Each structure is given as a SMILES string.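 Dose response: 5 concentrations. Exposure: 48 h. Format: 96-well plates. Endpoint: linear interpolation; highest concentration if not reached. TGI marks complete inhibition of growth.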

Some test systems named below: MCF7 breast; HCT-116 colon; NCI/ADR-RES ovarian; M14 melanoma; SN12C renal; UO-31 renal; HCC-2998 colon; DU-145 prostate; 786-0 renal; TK-10 renal; SK-OV-3 ovarian.
Common to all, as to assay: NCI-60 cell line screen, 48 h

As for `N#CN=C(N)c1sc2nc3c(c(-c4ccc(Br)cc4)c2c1N)CCCC3`, the TGI is over 100 µM in the assay on MCF7 breast; 33.1 µM in the assay on HCT-116 colon; 80.1 µM with NCI/ADR-RES ovarian; over 100 µM with M14 melanoma; 58.1 µM in the assay with SN12C renal; 57.6 µM with UO-31 renal. The TGI in the assay with HCC-2998 colon is 60.3 µM; with DU-145 prostate it was 71.9 µM; in the assay on 786-0 renal it was 50.2 µM; in the assay on TK-10 renal it was over 100 µM; in the assay with SK-OV-3 ovarian, over 100 µM.

Consider `Oc1ccc(-c2csc(NNC3=NC/C(=C/c4ccc5c(c4)OCO5)S3)n2)cc1O`, for which the TGI is over 100 µM with MCF7 breast; over 100 µM with HCT-116 colon; over 100 µM with NCI/ADR-RES ovarian; over 100 µM in the assay on M14 melanoma; over 100 µM in the assay on SN12C renal; 69.2 µM in the assay with UO-31 renal. Besides, the TGI in the assay with HCC-2998 colon is over 100 µM; with DU-145 prostate, over 100 µM; in the assay on 786-0 renal, over 100 µM; with TK-10 renal, 72.4 µM; in the assay on SK-OV-3 ovarian, over 100 µM.

Regarding `COc1cc(-c2cn(S(=O)(=O)c3ccc(C)cc3)c3ccccc23)nc(-c2cn(S(=O)(=O)c3ccc(C)cc3)c3ccccc23)n1`, the TGI in the assay on MCF7 breast was over 100 µM; in the assay with HCT-116 colon it was over 33.8 µM; in the assay on NCI/ADR-RES ovarian, over 100 µM; in the assay on M14 melanoma, 17 µM; in the assay with SN12C renal, over 100 µM; in the assay with UO-31 renal, over 75.1 µM. Further, the TGI in the assay on HCC-2998 colon was over 100 µM; in the assay on DU-145 prostate, 1.85 µM; with 786-0 renal, over 100 µM; with TK-10 renal it was over 100 µM; with SK-OV-3 ovarian, over 100 µM.

Regarding `COc1cc(Cc2cc3c(c(C(=O)O)c2Br)OCO3)cc(OC)c1OC`, the TGI in the assay on MCF7 breast, with HCT-116 colon, with NCI/ADR-RES ovarian, in the assay on M14 melanoma, in the assay on SN12C renal and in the assay on UO-31 renal was over 100 µM in each case. Moreover, the TGI in the assay with HCC-2998 colon, with DU-145 prostate, in the assay on 786-0 renal, with TK-10 renal and with SK-OV-3 ovarian was over 100 µM each time.

For `O=C1c2c(Cl)c(Cl)c(Cl)c(Cl)c2C(=O)N1CCN(c1c(Cl)ssc1=O)c1c(Cl)ssc1=O`, the TGI with MCF7 breast was 44.8 µM; in the assay on HCT-116 colon it was 29.9 µM; in the assay on NCI/ADR-RES ovarian, over 100 µM; in the assay with M14 melanoma it was 46.2 µM; in the assay with SN12C renal it was 47.7 µM; in the assay on UO-31 renal, 32.3 µM. The TGI with HCC-2998 colon is 58.8 µM; in the assay with DU-145 prostate it was 36.7 µM; in the assay on 786-0 renal, 32.8 µM; with TK-10 renal it was 33.5 µM; in the assay with SK-OV-3 ovarian it was over 100 µM.

With `O=C(/C=C1\N=C(c2ccccc2)N(c2nc3ccc(Sc4ccccc4)cc3[nH]2)C1=O)/C=C/c1ccccc1`, the TGI in the assay with MCF7 breast is over 100 µM; in the assay with HCT-116 colon, over 100 µM; in the assay on NCI/ADR-RES ovarian it was 67.9 µM; in the assay on M14 melanoma, over 100 µM; in the assay on SN12C renal, over 100 µM; with UO-31 renal it was over 100 µM. Besides, the TGI is 32.5 µM with HCC-2998 colon; over 100 µM in the assay with DU-145 prostate; over 100 µM in the assay on 786-0 renal; 98.2 µM in the assay on TK-10 renal; over 100 µM in the assay on SK-OV-3 ovarian.

With `COc1ccc2nc3cc(Cl)ccc3c(NCCCN(Cc3cc(OC)c(OC)c(OC)c3)Cc3cc(OC)c(OC)c(OC)c3)c2c1`, the TGI in the assay with MCF7 breast amounted to 30.4 µM; in the assay with HCT-116 colon it was 1.7 µM; with NCI/ADR-RES ovarian, 86.5 µM; in the assay with M14 melanoma, 3.45 µM; in the assay with SN12C renal, 41 µM; in the assay on UO-31 renal, 26.1 µM. Further, the TGI turned out to be 37.3 µM in the assay with HCC-2998 colon; 27.3 µM in the assay with DU-145 prostate; 32.1 µM in the assay with 786-0 renal; 44.1 µM with TK-10 renal; 32.8 µM with SK-OV-3 ovarian.

On to `CC(C)(C)OC(=O)NCCCCC(N)C(N)=O` (configuration not stated), for which the TGI in the assay on MCF7 breast, with HCT-116 colon, with NCI/ADR-RES ovarian, with M14 melanoma, with SN12C renal and in the assay on UO-31 renal was over 100 µM each time. Besides, the TGI in the assay with HCC-2998 colon, in the assay on DU-145 prostate, in the assay on 786-0 renal, in the assay on TK-10 renal and in the assay with SK-OV-3 ovarian was over 100 µM throughout.

As for `COc1cc2c(/C=C3/C(=O)N(C)c4ccccc43)c(Cl)[nH]c2cc1C`, the TGI is over 23.5 µM in the assay with MCF7 breast; 7.02 µM with HCT-116 colon; 2.67 µM in the assay on NCI/ADR-RES ovarian; 11.5 µM with M14 melanoma; 7.99 µM in the assay with SN12C renal; over 58.3 µM in the assay on UO-31 renal. The TGI in the assay with HCC-2998 colon was 0.317 µM; in the assay with DU-145 prostate, 3.44 µM; in the assay with 786-0 renal it was 16.5 µM; in the assay on TK-10 renal, 5.16 µM; with SK-OV-3 ovarian, 0.629 µM.

As to `CC1(C)CC(=O)C(CCC(=O)/C=C/c2ccccc2)C(=O)C1`, the TGI in the assay with MCF7 breast, in the assay on HCT-116 colon, in the assay with NCI/ADR-RES ovarian, in the assay on M14 melanoma, in the assay on SN12C renal and in the assay on UO-31 renal was over 100 µM in each case. Moreover, the TGI in the assay with HCC-2998 colon, with DU-145 prostate, in the assay with 786-0 renal, in the assay with TK-10 renal and in the assay on SK-OV-3 ovarian was over 100 µM each time.

Regarding `N#Cc1c(N2CCCC2)nsc1NCc1ccccc1`, the TGI in the assay on MCF7 breast was over 100 µM; with HCT-116 colon it was over 100 µM; with NCI/ADR-RES ovarian, over 100 µM; in the assay on M14 melanoma, over 100 µM; in the assay with SN12C renal, over 100 µM; in the assay with UO-31 renal, 65 µM. Moreover, the TGI in the assay on HCC-2998 colon, in the assay with DU-145 prostate, with 786-0 renal, in the assay with TK-10 renal and in the assay on SK-OV-3 ovarian was over 100 µM throughout.

As to `CCC(C#N)(c1ccccc1)N(CCc1ccccc1)C(=O)c1ccccc1` (configuration not stated), the TGI in the assay on MCF7 breast, with HCT-116 colon, with NCI/ADR-RES ovarian, with M14 melanoma, with SN12C renal and with UO-31 renal was over 100 µM each time. Also, the TGI in the assay with HCC-2998 colon is over 100 µM; in the assay on DU-145 prostate, over 100 µM; in the assay on 786-0 renal, 37.5 µM; in the assay with TK-10 renal, over 100 µM; with SK-OV-3 ovarian, 82.7 µM.

For the origin of these results see PubChem BioAssay (NCI).
